# Experiments:
# Histamine H3 receptor [1] = target: T1, Histamine H3 receptor (Rattus norvegicus, UniProt Q9QYN8); assay: In vitro antagonism of the histamine H3-receptor in the rat cerebral cortex.; assay type: functional, tissue-based
# Histamine H3 receptor [2] = target: T1, Histamine H3 receptor; assay: The compound was tested in vitro for antagonistic activity against H3-receptor in the rat cerebral cortex; Not active (tested up to 1000 nM); assay type: functional, tissue-based
# T1 sequence (Q9QYN8 whole entry): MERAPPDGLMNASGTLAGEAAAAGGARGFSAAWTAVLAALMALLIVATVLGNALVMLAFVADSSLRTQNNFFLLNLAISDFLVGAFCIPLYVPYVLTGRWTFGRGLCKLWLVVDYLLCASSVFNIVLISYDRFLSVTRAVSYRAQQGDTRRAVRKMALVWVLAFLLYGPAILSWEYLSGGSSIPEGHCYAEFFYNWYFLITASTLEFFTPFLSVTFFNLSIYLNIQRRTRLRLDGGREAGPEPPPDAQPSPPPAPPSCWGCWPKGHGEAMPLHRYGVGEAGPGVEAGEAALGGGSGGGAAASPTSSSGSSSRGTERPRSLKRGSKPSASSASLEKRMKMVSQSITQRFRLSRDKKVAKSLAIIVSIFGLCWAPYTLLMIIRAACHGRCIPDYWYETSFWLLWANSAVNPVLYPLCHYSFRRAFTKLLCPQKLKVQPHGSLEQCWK
SMILES,Ki (Histamine H3 receptor [1]) [nM],Ki (Histamine H3 receptor [2])
Clc1cc(NCCc2cnc[nH]2)ccn1,160,
COC(=O)c1ccc(NCCc2cnc[nH]2)nc1,42,
O=[N+]([O-])c1ccc(NCCc2ccccn2)nc1,~1000,
O=[N+]([O-])c1ccc(NCCCc2c[nH]cn2)nc1,170,
O=[N+]([O-])c1ccc(SCc2c[nH]cn2)nc1,~600,
c1ccc(SCCc2cnc[nH]2)nc1,92,
S=C(NCCCn1ccnc1)NC1CCCCC1,,Not Active
S=C(NCCSCc1c[nH]cn1)NC1CCCCC1,~500,
FC(F)(F)c1ccc(N2CCC(c3cnc[nH]3)CC2)nc1,42,
FC(F)(F)c1ccc(NCCc2cnc[nH]2)nc1,17,
c1ccc(CCNc2ncccn2)nc1,> 10000,
c1cnc(NCCc2c[nH]cn2)cn1,200,
O=[N+]([O-])c1cc[n+]([O-])c(NCCc2c[nH]cn2)c1,53,
c1ccc(NCCc2c[nH]cn2)nc1,200,
O=[N+]([O-])c1cccnc1NCCc1c[nH]cn1,240,
c1c[nH]c(SCCc2cnc[nH]2)n1,400,
c1csc(NCCc2cnc[nH]2)n1,340,
O=[N+]([O-])c1ccc(NCCc2c[nH]cn2)nc1,29,
S=C(NCCc1c[nH]cn1)NC1CCCCC1,~200,
S=C(NCCCc1cnc[nH]1)NC1CCCCC1,13,
CNC(=S)NCCCCc1cnc[nH]1 [BURIMAMIDE],70,
S=C(NC1CCCCC1)N1CCC(c2cnc[nH]2)CC1 [THIOPERAMIDE],4.3,

# From ChEMBL document CHEMBL1128690, “Design of potent non-thiourea H3-receptor histamine antagonists” (J Med Chem, 1995)
